Assay results as given in ChEMBL document CHEMBL1141875, “Antitumor-active cobalt-alkyne complexes derived from acetylsalicylic acid: studies on the mode of drug action” (J Med Chem, 2005).

How the values were obtained:
[1] = system: Cancer cell lines; assay: Content in MDA-MB 231 human breast cancer cell nuclei was reported; format: functional, cell-based
[2] = system: Cancer cell lines; assay: Percentage of content in MCF-7 human breast cancer cell nuclei was reported; format: functional, cell-based
[3] = system: Cancer cell lines; assay: Percentage of content in MDA-MB 231 human breast cancer cell nuclei was reported; format: functional, cell-based
[4] = system: Nucleic Acid; assay: DNA-binding efficacy; format: nucleic-acid assay
[5] = system: Cancer cell lines; assay: Content in MCF-7 human breast cancer cell nuclei was reported; format: functional, cell-based
[6] = system: Glutathione reductase (Homo sapiens); assay: Percentage influence on cellular glutathione reductase activity
[7] = Antiproliferative activity in MCF-7 human breast cancer cells; format: functional, cell-based, MCF7
[8] = Antiproliferative activity in MDA-MB 231 human breast cancer cells; format: functional, cell-based, Cancer cell lines
[9] = Lipophilicity was reported; format: physicochemical; settings: human, octanol/water
[10] = Homo sapiens, Cancer cell lines

Compound | IC50 ([7]; mcf7) [µM] | IC50 ([8]; cancer cell lines) [µM] | IC50 ([7]; Homo sapiens, MCF7) [µM] | IC50 [8, 10] [µM] | further results
Co-ASS [listing 1 of 2 here] | – | – | – | – | Activity [1]: 0.22 pmol/µg; Activity [2]: 0.8%; Activity [3]: 5%; Activity [4]: 9.82 pmol/µg; Activity [5]: 0.12 pmol/µg; Activity [6]: 93%
CISPLATIN | 2 | 4 | – | – | –
O=c1[nH]cc(F)c(=O)[nH]1 [FLUOROURACIL] | – | – | 4.8 | 9.6 | –
Co-ASS [listing 2 of 2 here] | 1.4 | 1.9 | – | – | Log Kw [9]: 4.91
N[C@@H](Cc1ccc(N(CCCl)CCCl)cc1)C(=O)O | – | – | 5.7 | 3.9 | –
